Assay results published in US8076324B2, “Di(hetero)arylcyclohexane derivatives, their preparation, their use and pharmaceutical compositions comprising them” (Sanofi-Aventis, priority 2007, dated 2011).

Molecular target: T1, myocardial ATP-sensitive potassium channel (SUR2A/Kir6.2) (UniProt Q61743+Q63563)
T1 construct: expressed in transfected cells
Assay: Rubidium efflux test on HEK293 cells transfected with SUR2A and Kir6.2 (myocardial action)
Assay type: cell-based, SUR2A from the rat, Kir6.2 from the mouse
Details: HEK293 cells transfected with SUR2A/Kir6.2; KATP channels opened by rilmakalim; 25 min incubation; read-out: IC50 values for the inhibition of the rubidium efflux
Experimental: 1) Action on the SUR2A/Kir6.2 potassium channel (myocardial action) The action of the compounds on the ion transport through the myocardial ATP-sensitive potassium channel (SUR2A/Kir6.2) was determined in the rubidium efflux test system described below on human embryonic kidney cells HEK293 which were transfected with the components SUR2A and Kir6.2 (cf. Weyermann et al., Naunyn-Schmiedeberg's Arch. Pharmacol. 369, 374-381 (2004)).
The HEK293 cells were cultured at 37° C. in a humidified air atmosphere with 7% carbon dioxide in minimal essential medium with Earle's salts and L-glutamine (MEM, Gibco), which was supplemented with 10% fetal calf serum and zeozin (0.36 mg/ml) and geneticin (0.75 mg/ml). The transfection of the cells and the preparation of a cell line with stable expression of Kir6.2 from the mouse (accession number AF037313) and SUR2A from the rat (accession number D83598/L40624) were carried out as described in Giblin et al., J. Biol. Chem. 274, 22652-22659 (1999).
60 000 transfected cells per well were inoculated into a poly-D-lysine-coated 96-well microtiter plate (Greiner #650 201). After incubation for 24 h at 37° C., the cells were washed three times with buffer 1 (150 mM NaCl, 2 mM CaCl2, 0.8 mM NaH2PO4, 1 mM MgCl2, 5 mM glucose, 25 mM HEPES, pH=7.4). Subsequently, the buffer solution was replaced by 100 μl of rubidium loading buffer (buffer 1 with 5.4 mM RbCl) and the cells were incubated for a further 3 h at 37° C. The rubidium loading buffer was then removed by washing the cells three times with 200 μl each of potassium chloride wash buffer (buffer 1 with 5.4 mM KCl). After addition of the test substances (70 μl; dissolved in potassium chloride wash buffer with addition of DMSO), the KATP channels of the cells were opened by addition of 70 μl of rilmakalim (2 μM) (cf. Krause et al., Pflügers Arch. 429, 625-635 (1995)) and the cells were incubated at 37° C. for 25 min. Subsequently, the cell supernatants were transferred to a new 96-well microtiter plate and the cells were lyzed by addition of 200 μl of lysis buffer (buffer 1 with 1% Triton X-100). The concentrations of Rb^+ in the cell supernatant and in the cell lyzate were measured by means of atomic absorption spectroscopy using an Al 1200 apparatus (Aurora Instruments Ltd.).
The Rb^+ efflux rate was calculated as [Rb^+SN]/[Rb^+total], wherein [Rb^+SN] is the amount of Rb^+ in the cell supernatant and [Rb^+total] is the sum of the amounts of Rb^+ in the cell supernatant and cell lyzate. IC50 values for the inhibition of the rubidium efflux were calculated with the aid of the Hill equation.

T1 sequence (Q63563 whole entry): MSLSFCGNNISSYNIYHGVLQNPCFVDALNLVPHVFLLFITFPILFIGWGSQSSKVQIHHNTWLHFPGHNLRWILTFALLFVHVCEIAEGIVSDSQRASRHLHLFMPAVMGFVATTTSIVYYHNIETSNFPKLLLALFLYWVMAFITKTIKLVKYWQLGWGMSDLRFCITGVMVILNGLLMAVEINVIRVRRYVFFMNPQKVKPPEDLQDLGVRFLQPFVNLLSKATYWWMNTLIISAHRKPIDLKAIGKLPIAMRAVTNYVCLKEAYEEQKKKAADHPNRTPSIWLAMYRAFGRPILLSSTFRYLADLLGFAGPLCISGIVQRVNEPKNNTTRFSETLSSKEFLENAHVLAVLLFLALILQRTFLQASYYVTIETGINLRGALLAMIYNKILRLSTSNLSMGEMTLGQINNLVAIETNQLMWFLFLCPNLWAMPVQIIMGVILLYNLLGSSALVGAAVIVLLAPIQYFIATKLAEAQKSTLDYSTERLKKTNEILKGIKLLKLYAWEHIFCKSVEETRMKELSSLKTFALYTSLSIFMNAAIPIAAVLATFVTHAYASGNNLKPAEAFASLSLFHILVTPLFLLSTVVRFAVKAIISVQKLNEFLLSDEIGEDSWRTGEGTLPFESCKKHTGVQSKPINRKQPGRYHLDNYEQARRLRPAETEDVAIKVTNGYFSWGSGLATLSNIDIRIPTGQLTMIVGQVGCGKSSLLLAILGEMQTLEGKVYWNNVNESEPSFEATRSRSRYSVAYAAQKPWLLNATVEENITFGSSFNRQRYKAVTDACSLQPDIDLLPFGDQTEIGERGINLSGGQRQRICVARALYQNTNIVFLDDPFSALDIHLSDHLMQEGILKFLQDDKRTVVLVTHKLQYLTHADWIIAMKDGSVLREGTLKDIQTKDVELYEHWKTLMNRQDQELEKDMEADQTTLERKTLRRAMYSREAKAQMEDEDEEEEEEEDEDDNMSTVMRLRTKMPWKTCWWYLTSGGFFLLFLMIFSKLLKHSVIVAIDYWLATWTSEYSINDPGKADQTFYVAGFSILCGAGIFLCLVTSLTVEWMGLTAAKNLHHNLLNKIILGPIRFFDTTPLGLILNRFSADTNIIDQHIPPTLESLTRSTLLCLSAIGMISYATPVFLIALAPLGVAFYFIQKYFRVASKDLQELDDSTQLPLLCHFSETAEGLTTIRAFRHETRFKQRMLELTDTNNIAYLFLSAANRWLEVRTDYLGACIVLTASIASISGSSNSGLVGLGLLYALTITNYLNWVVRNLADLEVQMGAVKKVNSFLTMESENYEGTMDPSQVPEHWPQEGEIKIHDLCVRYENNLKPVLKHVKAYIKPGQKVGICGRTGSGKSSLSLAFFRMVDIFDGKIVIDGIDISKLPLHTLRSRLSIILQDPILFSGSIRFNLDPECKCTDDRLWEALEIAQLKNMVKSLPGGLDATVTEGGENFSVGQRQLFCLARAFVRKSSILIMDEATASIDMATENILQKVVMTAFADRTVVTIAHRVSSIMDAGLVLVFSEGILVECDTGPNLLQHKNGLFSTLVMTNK
T1 sequence (Q61743 whole entry): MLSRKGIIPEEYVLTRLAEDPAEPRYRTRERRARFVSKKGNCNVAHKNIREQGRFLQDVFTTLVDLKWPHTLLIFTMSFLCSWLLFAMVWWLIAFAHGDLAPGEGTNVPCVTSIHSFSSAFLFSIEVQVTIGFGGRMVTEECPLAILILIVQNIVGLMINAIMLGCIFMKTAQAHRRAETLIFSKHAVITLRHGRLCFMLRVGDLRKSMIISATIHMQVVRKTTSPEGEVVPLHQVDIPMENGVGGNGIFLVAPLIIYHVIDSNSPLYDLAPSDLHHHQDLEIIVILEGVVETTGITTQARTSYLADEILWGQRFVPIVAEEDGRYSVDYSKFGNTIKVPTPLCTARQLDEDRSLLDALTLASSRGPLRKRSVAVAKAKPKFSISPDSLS

Row | Compound | IC50 [nM]
1 | COC1(c2cccc(F)c2F)CCC(C(=O)O)(c2ccccc2)CC1 (stereo not shown) [Example 120] | < 1000
2 | Cc1ccc(C2(O)CCC(C(=O)O)(c3ccccc3)CC2)cc1F (stereo not shown) [Example 100] | < 1000
3 | O=C(O)C1(c2ccccc2)CCC(O)(c2cccc(C(F)(F)F)c2)CC1 (stereo not shown) [Example 102] | < 1000
4 | Cc1c(F)cc([C@]2(OCC3CC3)CC[C@](C(=O)O)(c3ccc(F)cc3)CC2)cc1S(=O)(=O)C(C)(C)C [Example 304-2, Cis-4-Cyclopropylmethoxy-4-[3-fluoro-4-methyl-5-(2-methylpropane-2-sulfonyl)phenyl]-1-(4-fluorophenyl)cyclohexanecarboxylic Acid] | < 1000
5 | O=C(O)[C@]1(c2ccc(F)cc2)CC[C@@](OCC2CC2)(c2ccc(F)cn2)CC1 [Example 263, Cis-4-Cyclopropylmethoxy-1-(4-fluorophenyl)-4-(5-fluoropyridin-2-yl)cyclohexanecarboxylic Acid] | < 1000
6 | CCCOC1(c2cccc(S(C)(=O)=O)c2)CCC(C(=O)O)(c2ccccc2)CC1 (stereo not shown) [Example 168] | < 1000
7 | COC1(c2ccc(F)cc2)CCC(C(=O)O)(c2ccc(C)cc2)CC1 (stereo not shown) [Example 239] | < 1000
8 | O=C(O)C1(c2ccccc2)CCC(O)(c2ccc(C(F)(F)F)cc2F)CC1 (stereo not shown) [Example 103] | < 1000
9 | CCOC1(c2ccccc2S(C)(=O)=O)CCC(C(=O)O)(c2ccccc2)CC1 (stereo not shown) [Example 173] | < 1000
10 | O=C(O)[C@]1(c2ccccc2)CC[C@](OCC2CC2)(c2nc(-c3ccccc3)n(CC3CC3)n2)CC1 [Example 270, Trans-4-Cyclopropylmethoxy-4-(1-cyclopropylmethyl-5-phenyl-1H-[1,2,4]triazol-3-yl)-1-phenylcyclohexanecarboxylic Acid] | < 1000
11 | COC1(c2ccc(C(F)(F)F)cc2)CCC(C(=O)O)(c2ccccc2)CC1 (stereo not shown) [Example 124] | < 1000
12 | O=C(O)C1(c2ccccc2)CCC(O)(c2ccc(F)cc2F)CC1 (stereo not shown) [Example 95] | < 1000
13 | COC1(c2ccc(F)cc2)CCC(C(=O)O)(c2ccc(OC(F)(F)F)cc2)CC1 (stereo not shown) [Example 236] | < 1000
14 | COC1(c2ccc(F)cc2)CCC(C(=O)O)(c2cccc(OC(F)(F)F)c2)CC1 (stereo not shown) [Example 237] | < 1000
15 | O=C(O)[C@]1(c2ccccc2)CC[C@](OCC2CC2)(c2nc(C3CC3)n(CC3CC3)n2)CC1 [Example 296-2, Trans-4-(5-Cyclopropyl-1-cyclopropylmethyl-1H-[1,2,4]triazol-3-yl)-4-cyclopropylmethoxy-1-phenylcyclohexanecarboxylic Acid] | < 1000
16 | CC(C)S(=O)(=O)c1cc(F)cc([C@]2(OCC3CC3)CC[C@](C(=O)O)(c3ccc(F)cc3)CC2)c1 [Example 304-1, Cis-4-Cyclopropylmethoxy-1-(4-fluorophenyl)-4-[3-fluoro-5-(propane-2-sulfonyl)phenyl]cyclohexanecarboxylic Acid] | < 1000

Further lines, results first:

Row | IC50 [nM] | Compound
17 | < 1000 | O=C(O)[C@]1(c2ccccc2)CC[C@@](OCC2CC2)(c2cc(-c3ccccc3)ccn2)CC1 [Example 485, Cis-4-Cyclopropylmethoxy-1-phenyl-4-(4-phenylpyridin-2-yl)cyclohexanecarboxylic Acid]
18 | < 1000 | Cc1nc([C@]2(OCC3CC3)CC[C@](C(=O)O)(c3ccc(S(C)(=O)=O)cc3)CC2)n(CC2CC2)c1Cl [Example 408]
19 | < 1000 | O=C(O)[C@]1(c2ccccc2)CC[C@](OCC2CC2)(c2nc3cc(F)ccc3n2CC2CC2)CC1 [Example 453]
20 | < 1000 | O=C(O)[C@]1(c2ccccc2)CC[C@@](OCC2CC2)(c2nc3cccnc3n2CC2CC2)CC1 [Example 448]
21 | < 1000 | Cc1cn(CC2CC2)c([C@]2(OCC3CC3)CC[C@](C(=O)O)(c3ccc(F)cc3)CC2)n1 [Example 368]
22 | < 1000 | CCCn1c(Cl)c(C)nc1[C@]1(OCCOC)CC[C@](C(=O)O)(c2ccccc2)CC1 [Example 390]
23 | < 1000 | O=C(O)[C@]1(c2ccccc2)CC[C@](Oc2ccccc2)(c2nc(-c3ccccc3)nn2CC2CC2)CC1 [Example 466]
24 | < 1000 | O=C(O)[C@]1(c2ccccc2)CC[C@](OCC2CC2)(c2nc(C(F)(F)F)cn2CC2CC2)CC1 [Example 381]
25 | < 1000 | O=C(O)[C@]1(c2ccccc2)CC[C@](OCC2CC2)(c2cc(-c3ccccc3)ccn2)CC1 [Example 486, Trans-4-Cyclopropylmethoxy-1-phenyl-4-(4-phenylpyridin-2-yl)cyclohexanecarboxylic Acid]
26 | < 1000 | Cc1nc([C@]2(OCC3CC3)CC[C@](C(=O)O)(c3ccccc3)CC2)n(CC2CC2)c1Cl [Example 382]
27 | < 1000 | Cc1nc([C@]2(OCCC(C)C)CC[C@](C(=O)O)(c3ccccc3)CC2)n(CC2CC2)c1Br [Example 375]
28 | < 1000 | O=C(O)[C@]1(c2ccccc2)CC[C@@](OCC2(c3ccccc3)COC2)(c2ccc(F)cc2)CC1 [Example 499, 4-(4-Fluorophenyl)-1-phenyl-4-(3-phenyloxetan-3-ylmethoxy)cyclohexanecarboxylic Acid]
29 | < 1000 | O=C(O)[C@]1(c2ccccc2)CC[C@@](OCC2(c3ccccc3)COC2)(c2nccn2CC2CC2)CC1 [Example 497, 4-(1-Cyclopropylmethyl-1H-imidazol-2-yl)-1-phenyl-4-(3-phenyloxetan-3-ylmethoxy)cyclohexanecarboxylic Acid]
30 | < 1000 | Cc1c(Br)nc([C@]2(OCC3CC3)CC[C@](C(=O)O)(c3ccccc3)CC2)n1CC1CC1 [Example 373]
31 | < 1000 | CC(C)CCO[C@]1(c2nccn2CC2CC2)CC[C@@](C(=O)O)(c2ccc(F)cc2)CC1 [Example 370]
32 | < 1000 | O=C(O)[C@]1(c2ccc(F)cc2)CC[C@@](OCC2CC2)(c2nccn2CC2CC2)CC1 [Example 364]
33 | < 1000 | Cc1nc([C@]2(OCCC(C)C)CC[C@](C(=O)O)(c3ccccc3)CC2)n(CC2CC2)c1C [Example 376]
34 | < 1000 | O=C(O)[C@]1(c2ccccc2)CC[C@@](OCC2CC2)(c2nc(Cl)c(Cl)n2CC2CC2)CC1 [Example 387]
35 | < 1000 | Cc1c(F)cc(S(C)(=O)=O)cc1[C@]1(OCC2CC2)CC[C@](C(=O)O)(c2ccccc2)CC1 [Example 480, Cis-4-Cyclopropylmethoxy-4-(3-fluoro-2-methyl-5-methanesulfonylphenyl)-1-phenylcyclohexanecarboxylic Acid]
36 | < 1000 | Cc1nc([C@]2(OCC3CC3)CC[C@](C(=O)O)(c3cccnc3)CC2)n(CC2CC2)c1Cl [Example 407]
37 | < 1000 | O=C(O)[C@]1(c2ccccc2)CC[C@@](OCC2CC2)(c2ncc(C(F)(F)F)n2CC2CC2)CC1 [Example 378]
38 | < 1000 | Cc1c(F)cc([C@]2(OCC3CC3)CC[C@](C(=O)O)(c3ccc(F)cc3)CC2)cc1S(=O)(=O)C(C)C [Example 304-4, Cis-4-Cyclopropylmethoxy-4-[3-fluoro-4-methyl-5-(propane-2-sulfonyl)phenyl]-1-(4-fluorophenyl)cyclohexanecarboxylic Acid]
39 | < 1000 | O=C(O)[C@]1(c2ccc(F)cc2)CC[C@](Oc2ccccc2)(c2nc3ccccc3n2CC2CC2)CC1 [Example 406]
40 | < 1000 | Cc1nc([C@]2(OCC3CC3)CC[C@](C(=O)O)(c3ccc(OC(F)(F)F)cc3)CC2)n(CC2CC2)c1Cl [Example 410]
